According to PubChem BioAssay AID1159559 (GlaxoSmithKline (GSK), 2015):
Activity calls are given as the source filed them.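 The calls were made as follows: active = compounds whose IC50 against parasite growth in infected mouse cells is below 50000 nM; inactive = the rest.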

Tested on: T. cruzi Tulahuen in NIH-3T3, beta-gal fluorescence, 4 d
Assay: T. cruzi intracellular growth inhibition, cell-based (AID 1159559)

SMILES | IC50
CCc1ccc2nc(NC(=O)c3cc(N4CCOCC4)ccn3)sc2c1 | 2500 nM
COCc1cc(Nc2ccc(Cl)cc2)nc(-c2ccccn2)n1 | 1600 nM
Cc1cc(=O)n2nc(Oc3ccc(C#N)cc3Cl)sc2n1 | 16000 nM
COc1ccccc1-n1c(SCC(=O)Nc2ccc3c(c2)OCO3)nc2c(c1=O)SCC2 | 40000 nM
Cc1nn(C)c(Cl)c1CN(Cc1cccnc1)Cc1ccsc1 | 160 nM
Cc1nn(-c2nc3ccccc3s2)c2c1C(c1ccc(OCC(N)=O)cc1)SCC(=O)N2 (configuration not stated) | 5000 nM
Cc1cccc(N2CCCN(Cc3c[nH]c4ccccc34)CC2)n1 | 320 nM
CC(Cn1ccnc1)NC(=O)C1CC1c1cccc(Cl)c1Cl (configuration not stated) | 130 nM
CC(C)Nc1nc(Cl)nc2ccccc12 | 4000 nM
Oc1cccnc1-c1n[nH]c(Cc2ccccc2)n1 | 6300 nM
COc1ccc(OC)c2c(=O)c(Cc3ccccc3)c(C)[nH]c12 | 200 nM
CCS(=O)(=O)Nc1ccc(C2=NN(C(=O)c3cccs3)C(c3ccccc3OC)C2)cc1 (configuration not stated) | 7900 nM
O=C(c1cccc(Nc2ncc(-c3ccc4c(c3)OCO4)cn2)c1)N1CCOCC1 | 6300 nM
Cc1ccccc1NS(=O)(=O)c1ccc2[nH]cc(C(=O)NC3CCCC3)c(=O)c2c1 | 25000 nM
Cc1ccc(C)c(CN2C(=O)NC3(CCc4ccccc43)C2=O)c1 (configuration not stated) | 25000 nM
CS(=O)(=O)c1ccc(Nc2nccc(-c3cnn4ncccc34)n2)cc1 | 2000 nM
CCCn1c(NC(=O)CCn2cc(Br)cn2)nc2ccccc21 | 5000 nM
Clc1ccc(Sc2cnccc2N2CCOCC2)cc1 | 130 nM
CC(C)N(C(=O)CN1C(=O)C(N)C(=O)N(c2ccccc2)c2ccccc21)c1ccccc1 (configuration not stated) | 320 nM
CS(=O)(=O)c1cccc(CNC(=O)c2cncc(N3CCN(c4ccc(F)cc4)CC3)c2)c1 | 630 nM
O=C(Nc1ccccc1C(=O)Nc1ccccn1)c1ccco1 | > 50000 nM (inactive)

SMILES | IC50
COc1cc(NC(=O)Nc2cccc(CNC(=O)OC3CCCCC3)c2)ccc1-c1cnco1 | 1000 nM
Cc1ccc(Nc2nc(N)nc(CNC(c3nc4ccccc4[nH]3)C(C)C)n2)cc1 (configuration not stated) | 1000 nM
O=C(Nc1nc(-c2ccc(S(=O)(=O)N3CCOCC3)cc2)cs1)c1ccc([N+](=O)[O-])cc1 | 1000 nM
COc1cccc2sc(CN(C)C(=O)C3CNCCN3c3ccc(F)cc3)c(C)c12 (configuration not stated) | 400 nM
Cn1nc([N+](=O)[O-])nc1Oc1ccc(C(=O)c2ccccc2)cc1 | 250 nM
CC(C)(C)Nc1nc(-c2ccccn2)nc2ccccc12 | 1300 nM
CCCN(Cc1ccc(OC)c(OC)c1)Cc1cc(=O)c2c(C)cc(C)cc2[nH]1 | 2000 nM
Cc1ccc(CNC2CCN(C[C@@H]3Cn4c(=O)ccc5ccc(=O)n3c54)CC2)cc1F | 1300 nM
CCCCn1nnnc1CSc1nc(C)cc(C)c1C#N | 320 nM
Cc1nc2c(-c3ncn[nH]3)cc(NC(=O)Cc3ccccc3)cn2c1C | 1000 nM
CC1=C(C(=O)Nc2ccc(Cl)cc2)C(c2ccncc2)n2ncc(C(=O)Nc3ccccc3)c2N1 (configuration not stated) | 20 nM
COc1ccccc1-c1c(C)[nH]c2nc(N)nc(C)c12 | 160 nM
COc1ccc(C(=O)Nc2cc(C(F)(F)F)ccc2N2CCOCC2)c(OC)c1 | 1000 nM
Cc1cc(C)cc(NS(=O)(=O)c2cc(-c3cc(C)[nH]n3)ccc2C)c1 | 1000 nM
Cc1ccccc1CNC(=O)CN(Cc1ccccn1)Cc1ccccn1 | 5000 nM
NS(=O)(=O)c1ccc(CNC(=O)c2ccc([N+](=O)[O-])s2)cc1 | 1000 nM
N#Cc1c(Oc2cccc(Cl)c2)cccc1[N+](=O)[O-] | 320 nM
CC1CN(Cc2ccc(C#N)cc2)CCN1c1ccc(NC(=O)c2ccccc2F)cc1 (configuration not stated) | 25000 nM
OCC1CCCCN1c1cc(-c2ccccn2)nc(Nc2ccccc2)n1 (configuration not stated) | 790 nM
COc1cc2c(cc1OC)[C@H]1[C@@H](C)c3ccc(OC)c(OC)c3CN1CC2 | 25000 nM
CC(Cn1ccnc1)NC(=O)C=Cc1ccc(Cl)cc1 (configuration not stated) | 400 nM

SMILES | IC50
CCNc1cc(-c2ccccn2)nc(Nc2ccc(OC)cc2)n1 | 630 nM
CCN(CC)c1ncc(C(=O)c2ccc([N+](=O)[O-])o2)s1 | 4000 nM
Cc1nc2c(-c3cccs3)c(C)nn2c(NCCO)c1C | 40000 nM
CC(C)c1cc(C(=O)N2CCCC(c3cc4ncccc4[nH]3)C2)on1 (configuration not stated) | 2000 nM
COc1ccccc1CNc1cc(C2CC2)nc(-c2nccn2C)n1 | 790 nM
CC(=O)Nc1nc(-c2cc(C)ccc2C)c(C)s1 | 200 nM
Clc1ccc(OCCN2CCCCC2c2cccnc2)c(Cl)c1 (configuration not stated) | 400 nM
N#Cc1cc(-c2ccnc(Nc3cccc(CN4CCOCC4)c3)n2)ccc1NCCN | 7900 nM
NC(=O)c1cc(NC(=O)c2ccccc2COc2ccccc2)ccc1Cl | 40000 nM
Cc1nccn1C1CCCN(C(=O)c2cc3c(F)cccc3s2)C1 (configuration not stated) | 630 nM
O=C(NCC1CCCCC1)c1cnns1 | 2500 nM
CC(=O)Nc1ccc(-c2ccnc(Nc3cccc(C#N)c3)n2)cc1 | 6300 nM
CS(=O)(=O)NC1CCC(Oc2cc3cnccc3cc2-c2ccsc2)CC1 (configuration not stated) | 130 nM
CC(C)CC(=O)NC(c1cccs1)c1ccc2cccnc2c1O (configuration not stated) | 1600 nM
c1cc(-c2ncc(-c3ccn[nH]3)s2)ccn1 | 160 nM
COc1ccc(-c2cc(C)no2)cc1S(=O)(=O)Nc1ccc(C)c(C)c1 | 5000 nM
CCOc1ccc(CC(=O)N2c3ccccc3CC2C(=O)NC)cc1 (configuration not stated) | > 50000 nM (inactive)
N#Cc1cc(N2CCCC2=O)ccc1Sc1ccccc1CO | 250 nM
COc1ccc2ncc(=O)n(CCN3CCOC(CNCc4ccc(C(F)(F)F)cc4F)C3)c2n1 (configuration not stated) | 400 nM
COc1ccc(Nc2nc(-c3ccccn3)cc(N3CCCC(O)C3)n2)cc1 (configuration not stated) | 630 nM
CN(C)c1ccc(N)cc1CN(CC1CCCO1)S(C)(=O)=O (configuration not stated) | > 50000 nM (inactive)

SMILES | IC50
FC(F)(F)c1cc(C2CCCN(Cc3c[nH]c4ccccc34)C2)nc2ncnn12 (configuration not stated) | 1600 nM
CCN(CC)S(=O)(=O)c1ccc(C)c(NC(=O)c2cc(Cl)c3c(c2)OCO3)c1 | 6300 nM
CC(=O)NC1(c2ccccc2)CCN(CC(=O)Nc2ccccc2-c2ccccc2)CC1 | 1300 nM
O=C(c1cnn(-c2ccccc2)n1)N1CCCC(n2ccnc2)C1 (configuration not stated) | 50 nM
CN(CCOc1ccc(Cl)cc1)Cc1nc(N)nc(N(C)C)n1 | 5000 nM
CC(=O)Nc1ccc(-c2csc(NC(=O)c3ccc([N+](=O)[O-])s3)n2)cc1 | 130 nM
CC1CCCCN1C(=O)NCCc1coc(-c2ccc(F)cc2)n1 (configuration not stated) | 400 nM
O=C(Cc1ccccc1)Nc1[nH]nc2sc(C(=O)NC3CCCC3)cc12 | 7900 nM
Fc1ccc(Nc2nc(-c3ccccn3)cs2)cc1 | 2500 nM
N#Cc1cc([N+](=O)[O-])ccc1NC1CCCCCC1 | 2500 nM
CC(C)Nc1nccc(-c2c(-c3ccc(F)cc3)ncn2C2CCOCC2)n1 | 250 nM
CCOc1ccc(NC(=O)c2ccc(NC(=O)NC3CCCCC3)cc2)cc1 | 32000 nM
Cn1cncc1CN1CCC2(CC1)COC(Cc1ccccc1)C2 (configuration not stated) | 320 nM
COc1cccc(C(=O)[C@H]2C[C@@H]2CN(Cc2ccccn2)Cc2ccccn2)c1 | 1300 nM
CS(=O)(=O)N1CCC(Nc2ncc(Br)c(Nc3cccc(F)c3C(N)=O)n2)CC1 | 320 nM
N#Cc1ccc(C(=O)Nc2cccc(-c3cccc(CN4CCC(O)CC4)c3)c2)cc1 | 5000 nM
COc1ccc(CN2CCCCC2c2nc(-c3cccnc3)no2)cc1 (configuration not stated) | 790 nM
O=c1[nH]cnc2c([C@@H]3O[C@H](CO)[C@@H](O)[C@H]3O)[nH]nc12 | 130 nM
COc1ncc(-c2ccc3ncnc(N4CCOCC4)c3c2)cc1NS(C)(=O)=O | 500 nM
